Data taken from BindingDB's records for doi:10.1021/jm9910371 (Uppsala University, 1999).

Target: T1, Dimer of Gag-Pol polyprotein [501-599] (Human immunodeficiency virus 1, UniProt P03367)
T1 construct: 501-599
Assay: Protease Inhibition Assay
Details: pH 5; 30 °C
Experimental: Ki values were determined by using a fluorescent substrate (DABCYL-gamma-Abu-[…]EDANS). All incubations were performed at 30°C in 0.1 M sodium acetate 1 M NaCl 1 mM DTT 1 mM EDTA 3% DMSO (pH 5.0) by using 5 uM substrate and the indicated enzyme concentrations ([E]). The enzyme concentration (A280) was determined by absorption measurements.

| Compound | Ki |
| --- | --- |
| CNC(=O)[C@@H](NC(=O)[C@H](OCc1ccc(C2CCCC(=O)C2=O)cc1)[C@H](O)[C@@H](O)[C@@H](OCc1ccc(C2CCCC(=O)C2=O)cc1)C(=O)N[C@H](C(=O)NC)C(C)C)C(C)C (stereo partly drawn) [N1,N6-Bis[(1S)-2-methyl-1-(methylcarbamoyl)pro-pyl](2R,3R,4R,5R)-2,5-bis[4-(3-cyclohexane-1,2-dionyl)benzyloxy]-3,4-dihydroxyhexanediamide] | 0.3 nM |
| CNC(=O)[C@@H](NC(=O)[C@H](OCc1ccccc1)[C@H](O)[C@@H](O)[C@@H](OCc1ccccc1)C(=O)N[C@H](C(=O)NC)C(C)C)C(C)C [1-Valine Methylamide deriv. 1] | 0.4 nM |
